Source: the NIST ThermoML archive (doi:10.1016/j.jct.2003.11.008)

Legend:
[1] = xn = mol fraction of the nth substance listed; details: 318.15 K, 101.3 kPa, Liquid
[2] = excess molar enthalpy (molar enthalpy of mixing); xn = mol fraction of the nth substance listed; details: 318.15 K, 101.3 kPa, Liquid

CCCCCOC(C)=O [pentyl ethanoate] + CCCCCCCCC
Details	excess molar enthalpy [kcal/mol]	excess molar volume [m3/mol]
[1], x1 = 0.0672	–	1.52e-07
[1], x1 = 0.1243	–	2.83e-07
[1], x1 = 0.1813	–	4.14e-07
[1], x1 = 0.2354	–	5.13e-07
[1], x1 = 0.3037	–	5.97e-07
[1], x1 = 0.3405	–	6.3e-07
[1], x1 = 0.3995	–	6.66e-07
[1], x1 = 0.4479	–	6.75e-07
[1], x1 = 0.5035	–	6.77e-07
[1], x1 = 0.5492	–	6.64e-07
[1], x1 = 0.6071	–	6.24e-07
[1], x1 = 0.6461	–	5.91e-07
[1], x1 = 0.685	–	5.48e-07
[1], x1 = 0.7852	–	4.49e-07
[1], x1 = 0.8739	–	3.42e-07
[1], x1 = 0.9451	–	2.1e-07
[2], x1 = 0.0676	0.0718	–
[2], x1 = 0.1364	0.126	–
[2], x1 = 0.2097	0.173	–
[2], x1 = 0.2818	0.207	–
[2], x1 = 0.3491	0.228	–
[2], x1 = 0.4124	0.239	–
[2], x1 = 0.4692	0.243	–
[2], x1 = 0.5191	0.239	–
[2], x1 = 0.5639	0.232	–
[2], x1 = 0.621	0.216	–
[2], x1 = 0.6739	0.202	–
[2], x1 = 0.7288	0.181	–
[2], x1 = 0.7858	0.154	–
[2], x1 = 0.8432	0.12	–
[2], x1 = 0.8986	0.0826	–
[2], x1 = 0.9529	0.0421	–

CCCCCCCCCCCCCCCCC [heptadecane] + CCOC(C)=O
Details	excess molar enthalpy [kcal/mol]	excess molar volume [m3/mol]
[1], x2 = 0.1461	–	6.4e-07
[1], x2 = 0.2562	–	1.04e-06
[1], x2 = 0.3512	–	1.284e-06
[1], x2 = 0.4324	–	1.449e-06
[1], x2 = 0.5057	–	1.538e-06
[1], x2 = 0.5143	–	1.548e-06
[1], x2 = 0.5756	–	1.565e-06
[1], x2 = 0.5814	–	1.562e-06
[1], x2 = 0.6778	–	1.503e-06
[1], x2 = 0.7269	–	1.41e-06
[1], x2 = 0.7898	–	1.273e-06
[1], x2 = 0.8421	–	1.081e-06
[1], x2 = 0.903	–	7.83e-07
[1], x2 = 0.9457	–	5.1e-07
[1], x2 = 0.9685	–	3.18e-07
[2], x2 = 0.0911	0.136	–
[2], x2 = 0.1754	0.245	–
[2], x2 = 0.2543	0.345	–
[2], x2 = 0.3274	0.415	–
[2], x2 = 0.394	0.467	–
[2], x2 = 0.4566	0.506	–
[2], x2 = 0.512	0.525	–
[2], x2 = 0.558	0.534	–
[2], x2 = 0.6007	0.531	–
[2], x2 = 0.634	0.523	–
[2], x2 = 0.6486	0.519	–
[2], x2 = 0.6818	0.504	–
[2], x2 = 0.7172	0.485	–
[2], x2 = 0.7538	0.463	–
[2], x2 = 0.7913	0.426	–
[2], x2 = 0.8271	0.392	–
[2], x2 = 0.8653	0.342	–
[2], x2 = 0.9018	0.287	–
[2], x2 = 0.9382	0.22	–
[2], x2 = 0.9719	0.121	–

CCCCOC(C)=O [butyl ethanoate] + CCCCCCCCC
Details	excess molar enthalpy [kcal/mol]	excess molar volume [m3/mol]
[1], x1 = 0.0761	–	2.63e-07
[1], x1 = 0.1325	–	4.29e-07
[1], x1 = 0.1914	–	5.63e-07
[1], x1 = 0.2533	–	6.69e-07
[1], x1 = 0.3151	–	7.6e-07
[1], x1 = 0.3713	–	8.09e-07
[1], x1 = 0.4229	–	8.37e-07
[1], x1 = 0.4749	–	8.55e-07
[1], x1 = 0.5222	–	8.55e-07
[1], x1 = 0.5765	–	8.31e-07
[1], x1 = 0.6275	–	7.98e-07
[1], x1 = 0.6744	–	7.55e-07
[1], x1 = 0.7062	–	7.07e-07
[1], x1 = 0.8023	–	5.38e-07
[1], x1 = 0.8838	–	3.43e-07
[1], x1 = 0.9444	–	1.75e-07
[2], x1 = 0.0779	0.0816	–
[2], x1 = 0.1485	0.146	–
[2], x1 = 0.2301	0.2	–
[2], x1 = 0.3059	0.237	–
[2], x1 = 0.3775	0.261	–
[2], x1 = 0.442	0.271	–
[2], x1 = 0.5	0.272	–
[2], x1 = 0.5519	0.266	–
[2], x1 = 0.5963	0.256	–
[2], x1 = 0.6435	0.243	–
[2], x1 = 0.6936	0.227	–
[2], x1 = 0.7461	0.203	–
[2], x1 = 0.8009	0.172	–
[2], x1 = 0.8533	0.134	–
[2], x1 = 0.9067	0.0904	–
[2], x1 = 0.9568	0.0449	–

CCCCCCCCCCCCCCC [pentadecane] + CCCOC(C)=O
Details	excess molar enthalpy [kcal/mol]	excess molar volume [m3/mol]
[1], x2 = 0.0878	–	3.42e-07
[1], x2 = 0.1416	–	5.35e-07
[1], x2 = 0.2112	–	7.4e-07
[1], x2 = 0.3035	–	9.75e-07
[1], x2 = 0.3749	–	1.102e-06
[1], x2 = 0.4446	–	1.188e-06
[1], x2 = 0.5048	–	1.254e-06
[1], x2 = 0.5631	–	1.259e-06
[1], x2 = 0.6193	–	1.238e-06
[1], x2 = 0.6657	–	1.213e-06
[1], x2 = 0.742	–	1.093e-06
[1], x2 = 0.8073	–	9.36e-07
[1], x2 = 0.8769	–	6.9e-07
[1], x2 = 0.9297	–	4.51e-07
[1], x2 = 0.9673	–	2.26e-07
[2], x2 = 0.1056	0.137	–
[2], x2 = 0.1903	0.23	–
[2], x2 = 0.2687	0.303	–
[2], x2 = 0.3385	0.354	–
[2], x2 = 0.4042	0.389	–
[2], x2 = 0.4596	0.409	–
[2], x2 = 0.5101	0.421	–
[2], x2 = 0.5521	0.421	–
[2], x2 = 0.5935	0.416	–
[2], x2 = 0.634	0.405	–
[2], x2 = 0.674	0.389	–
[2], x2 = 0.715	0.369	–
[2], x2 = 0.7583	0.339	–
[2], x2 = 0.8027	0.301	–
[2], x2 = 0.8473	0.254	–
[2], x2 = 0.8921	0.193	–
[2], x2 = 0.9369	0.126	–
[2], x2 = 0.9732	0.0589	–

CCCCCCCCCCC [undecane] + CCCCOC(C)=O
Details	excess molar enthalpy [kcal/mol]	excess molar volume [m3/mol]
[1], x2 = 0.0356	–	1.49e-07
[1], x2 = 0.0842	–	3.26e-07
[1], x2 = 0.1543	–	5.21e-07
[1], x2 = 0.2226	–	6.82e-07
[1], x2 = 0.288	–	7.97e-07
[1], x2 = 0.35	–	8.56e-07
[1], x2 = 0.407	–	9.28e-07
[1], x2 = 0.4636	–	9.43e-07
[1], x2 = 0.5172	–	9.66e-07
[1], x2 = 0.5676	–	9.44e-07
[1], x2 = 0.6153	–	9.27e-07
[1], x2 = 0.6613	–	8.79e-07
[1], x2 = 0.7042	–	8.17e-07
[1], x2 = 0.7392	–	7.75e-07
[1], x2 = 0.8289	–	5.74e-07
[1], x2 = 0.8978	–	3.84e-07
[1], x2 = 0.9408	–	2.33e-07
[2], x2 = 0.0677	0.08	–
[2], x2 = 0.1493	0.151	–
[2], x2 = 0.2299	0.21	–
[2], x2 = 0.3113	0.255	–
[2], x2 = 0.3836	0.282	–
[2], x2 = 0.4482	0.296	–
[2], x2 = 0.5078	0.3	–
[2], x2 = 0.5555	0.295	–
[2], x2 = 0.5708	0.292	–
[2], x2 = 0.6136	0.28	–
[2], x2 = 0.6586	0.265	–
[2], x2 = 0.7055	0.248	–
[2], x2 = 0.7534	0.225	–
[2], x2 = 0.7837	0.206	–
[2], x2 = 0.832	0.173	–
[2], x2 = 0.8778	0.135	–
[2], x2 = 0.9233	0.0902	–
[2], x2 = 0.9637	0.0459	–
